# Data as given in US5231182A, “Method of making certain aryl containing amides” (American Cyanamid Company, priority 1991, dated 1993).
# Values joined by “and” are separate entries in the source; they are usually repeats but may differ in a detail not shown here. Equal values may be shown once. Where a name gives a salt, the structure may show the parent alone.
# Key:
# [1] = molecular target: T1, PAF receptor (Oryctolagus cuniculus, UniProt G1TEI7); assay: Platelet Activating Factor antagonism in vitro: inhibition of PAF induced platelet aggregation in rabbit platelet rich plasma; assay type: cell-based, rabbit (New Zealand White); conditions: PAF chall conc 5.0000E-08 M
# T1 construct: centrifuged at 800 rpm for 10-15 minutes at room temperature to recover the platelet rich plasma (PRP); endogenous in cells; host or cells: platelets in citrated platelet rich plasma from male New Zealand White rabbits (Oryctolagus cuniculus)
# Experimental: Test compounds are evaluated as PAF receptor antagonists in vitro by measuring inhibition of PAF (platelet activating factor) induced platelet aggregation. Platelet aggregation is measured by a modification of the method described in […], et. al., J. Med. Chem., 27 1174, 1984. […] All syringes and pipets are plastic. The blood is gently mixed and immediately centrifuged at 800 rpm for 10-15 minutes at room temperature to recover the platelet rich plasma (PRP). Platelet poor plasma (PPP) is prepared by centrifuging PRP at 2800 rpm for 10 minutes at room temperature. Dilutions (1:3000) of PRP in Isoton® diluent are made and platelet counts are determined on a Coulter Thrombocounter which is standardized with platelet reference standards (Interscience Platelet Control, Portland, Oreg.). PRP platelet counts are adjusted to approximately 400,000-500,000 platelets/μl by the addition of PPP. L-PAF (Platelet Activating Factor) is obtained from Calbiochem. […] All solutions are made up in plastic tubes, stored on ice and protected from heat and light. Solutions are prepared fresh or frozen at -20° C. and used within 48 hours. Incubation mixtures consisted of 400 μl PRP, 50 μl of saline diluent or test compound and 50 μl of PAF agonist. More specifically, 400 μl of PRP is stabilized in a cuvette for 1-2 minutes at 37° C. in the aggregometer to achieve a stable baseline, then 50 μl of saline or test compound is added and incubated for 5 minutes before addition of the challenge concentration of PAF. A submaximal concentration is determined from the dose response curve for PAF for that experiment. In general, the challenge concentration is 5E-8 or IE-7M. Aggregation is monitored for 5 minutes. Samples containing test compound or diluent are run simultaneously for comparison. Test compounds are initially evaluated at a screening concentration of 1E-5M. […] The recording equipment consists of a dual channel Chronolog aggregometer connected to a dual channel 10MV full scale deflection Omniscribe chart recorder (Houston Instruments). The chart recorder is calibrated daily with the use of a suspension of Bio-Rad latex beads (S-X 12 400 mesh) which has a density slightly greater than rabbit PRP. […] These limits defined a full scale deflection. The aggregation traces are analyzed by a digitizing method (C. Kohler and B. Zoltan, J. Pharm. Methods, 12, 113, 1984) with x, y coordinate data stored in a computer file. A suitable program computes parameters of interest such as the magnitude of aggregation. | ^a dose of compound that gives the indicated % inhibition. | ^b the % inhibition of PAF induced platelet aggregation. | ^c the molar concentration of compound that will inhibit 50% of the | platelet aggretation induced by PAF given at the indicated PAF challenge | concentration.
# [2] = system: PAF induced lethality; assay: PAF induced lethality in mice; assay type: in vivo; conditions: PAF 150 μg/kg IV
# Experimental: PAF given I.V. to mice causes an immediate hypotensive shock leading to death in 1 hour or less. Compounds are given intraperitoneally or P.O. at various times before the PAF challenge. Animals alive after 2 hours are counted and the activity of test compounds expressed as % survival corrected for any control (saline treated) animals which survived the PAF challenge.
# Effect of Compound Given I.V. or P.O. in Protecting
# Mice from a Lethal Challenge of PAF^a
# ^a lethal challenge of PAF is 150 μg/kg IV.
# [3] = system: Endotoxin induced shock and mortality; assay: Endotoxin induced shock and mortality in mice: low dose, chronic mouse endotoxemia; assay type: in vivo, Male Balb/c mice
# Text: Endotoxin administration produces a shock-like state characterized by vascular permeability changes, hypotension, neutropenia, thrombocytopenia,multiple organ damage and death. The major mediators released after endotoxin injection are TNF (tumor necrosis factor), PAF (platelet activating factor) and […] (interleukin I). PAF administration mimics the signs and symptoms of endotoxin induced shock and death and endotoxin also induces the release of PAF. Therefore, the effects of endotoxin should be blocked with a PAF antagonist.
# Male Balb/c mice (approximately 20 g) are obtained from Charles River Laboratories and used after a one-two week acclimation period. Animals are given (ip) test compound dissolved in saline or water (sonicated and heated) at different time intervals prior to and after the ip injection of endotoxin (usually 2 hours before LPS endotoxin, and 3-4 hours after). Sigma E. Coli endotoxin, 0111:B4, phenol extraction, catalog #L2630 is used for these studies.
# For the chronic endotoxin shock model, a lower dose of endotoxin is administered (generally 15 to 20 mg/kg i.p). This dose gives an LD80 in two to four days following LPS administration. Test compounds are given 2 hours before LPS and 3-4 hours after on the first day, followed by 3 or 4 consecutive days of BID dosing. The number of survivors in each group is recorded each day for a period of 5 to 7 days.
# Effect of Compounds Given i.p. in Low Dose, Chronic Mouse Endoxemia
# T1 sequence (G1TEI7 1-342): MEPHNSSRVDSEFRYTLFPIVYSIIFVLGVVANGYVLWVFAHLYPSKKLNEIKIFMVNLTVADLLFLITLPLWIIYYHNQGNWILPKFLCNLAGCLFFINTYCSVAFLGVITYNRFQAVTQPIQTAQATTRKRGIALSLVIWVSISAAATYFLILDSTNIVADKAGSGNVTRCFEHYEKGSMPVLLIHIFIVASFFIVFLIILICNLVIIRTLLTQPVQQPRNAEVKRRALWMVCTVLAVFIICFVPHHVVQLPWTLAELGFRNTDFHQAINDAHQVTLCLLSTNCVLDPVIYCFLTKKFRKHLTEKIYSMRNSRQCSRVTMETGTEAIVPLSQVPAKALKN
smiles,measurement,setting,value
CCCCCCCCCCCCCCOc1ccc(CN(C(C)=O)c2cccc(C[n+]3csc(C)c3)c2)cc1.[Br-] [3-[[3-[Acetyl[[4-(tetradecyloxy)phenyl]methyl]amino]phenyl]methyl]-5-methylthiazolium bromide],% INH (inhibition of PAF induced platelet aggregation),[1]; dose .00001 M,100.0% and 90.0%
same,% Survival,[2]; I.V. 1 mg/kg,83%
same,% Survival,[2]; I.V. .25 mg/kg,100%
same,% Survival,[2]; I.V. .5 mg/kg,83%
same,% Survival,[2]; P.O. 5 mg/kg,52%
same,% Survival,[2]; P.O. 10 mg/kg,75%
same,% Survival,[2]; P.O. 20 mg/kg,75%
same,% Survival,"[3]; day 0, dose 10 mg/kg i.p.",100%
same,No Surv./tot.,"[3]; day 0, dose 10 mg/kg i.p.",30/30
same,% Survival,"[3]; day 1, dose 10 mg/kg i.p.",73%
same,No Surv./tot.,"[3]; day 1, dose 10 mg/kg i.p.",22/30
same,% Survival,"[3]; day 2, dose 10 mg/kg i.p.",33%
same,No Surv./tot.,"[3]; day 2, dose 10 mg/kg i.p.",10/30
same,% Survival,"[3]; day 3, dose 10 mg/kg i.p.",26%
same,No Surv./tot.,"[3]; day 3, dose 10 mg/kg i.p.",8/30
same,% Survival,"[3]; day 4, dose 10 mg/kg i.p.",23%
same,No Surv./tot.,"[3]; day 4, dose 10 mg/kg i.p.",7/30
same,% Survival,"[3]; day 5, dose 10 mg/kg i.p.",23%
same,No Surv./tot.,"[3]; day 5, dose 10 mg/kg i.p.",7/30
same,% Survival,"[3]; day 6, dose 10 mg/kg i.p.",23%
same,No Surv./tot.,"[3]; day 6, dose 10 mg/kg i.p.",7/30
CCCCCCCCCCCCCCOc1ccc(CC(=O)Nc2cccc(C[n+]3ccsc3)c2)cc1.[Br-] [3-[[3-[[[-4-(tetradecyloxy)phenyl]acetyl]amino]phenyl]methyl]thiazolium bromide],% INH (inhibition of PAF induced platelet aggregation),[1]; dose .000001 M,93.0% and 62.0%
same,% Survival,[2]; P.O. 40 mg/kg,40%
same,% Survival,"[3]; day 0, dose 10 mg/kg i.p.",100%
same,No Surv./tot.,"[3]; day 0, dose 10 mg/kg i.p.",30/30
same,% Survival,"[3]; day 0, dose 20 mg/kg i.p.",100%
same,No Surv./tot.,"[3]; day 0, dose 20 mg/kg i.p.",30/30
same,% Survival,"[3]; day 1, dose 10 mg/kg i.p.",83%
same,No Surv./tot.,"[3]; day 1, dose 10 mg/kg i.p.",25/30
same,% Survival,"[3]; day 1, dose 20 mg/kg i.p.",90%
same,No Surv./tot.,"[3]; day 1, dose 20 mg/kg i.p.",27/30
same,% Survival,"[3]; day 2, dose 10 mg/kg i.p.",66%
same,No Surv./tot.,"[3]; day 2, dose 10 mg/kg i.p.",20/30
same,% Survival,"[3]; day 2, dose 20 mg/kg i.p.",43%
same,No Surv./tot.,"[3]; day 2, dose 20 mg/kg i.p.",13/30
same,% Survival,"[3]; day 3, dose 10 mg/kg i.p.",63%
same,No Surv./tot.,"[3]; day 3, dose 10 mg/kg i.p.",19/30
same,% Survival,"[3]; day 3, dose 20 mg/kg i.p.",40%
same,No Surv./tot.,"[3]; day 3, dose 20 mg/kg i.p.",12/30
same,% Survival,"[3]; day 4, dose 10 mg/kg i.p.",63%
same,No Surv./tot.,"[3]; day 4, dose 10 mg/kg i.p.",19/30
same,% Survival,"[3]; day 4, dose 20 mg/kg i.p.",40%
same,No Surv./tot.,"[3]; day 4, dose 20 mg/kg i.p.",12/30
same,% Survival,"[3]; day 5, dose 10 mg/kg i.p.",63%
same,No Surv./tot.,"[3]; day 5, dose 10 mg/kg i.p.",19/30
same,% Survival,"[3]; day 5, dose 20 mg/kg i.p.",40%
same,No Surv./tot.,"[3]; day 5, dose 20 mg/kg i.p.",12/30
same,No Surv./tot.,"[3]; day 6, dose 10 mg/kg i.p.",19/30
same,No Surv./tot.,"[3]; day 6, dose 20 mg/kg i.p.",12/30
same,% Survival,"[3]; day 7, dose 10 mg/kg i.p.",63%
same,No Surv./tot.,"[3]; day 7, dose 10 mg/kg i.p.",19/30
same,% Survival,"[3]; day 7, dose 20 mg/kg i.p.",40%
same,No Surv./tot.,"[3]; day 7, dose 20 mg/kg i.p.",12/30
CCCCCCCCCCCCCCOc1ccc(CN(C(=O)NC)c2cccc(C[n+]3csc(C)c3)c2)cc1.[Br-] [5-Methyl-3-[[3-[[(methylamino)carbonyl]-[[4-(tetradecyloxy)phenyl]methyl]amino]phenyl]methyl]thiazolium bromide],% Survival,"[3]; day 0, dose 10 mg/kg i.p.",100%
same,No Surv./tot.,"[3]; day 0, dose 10 mg/kg i.p.",30/30
same,% Survival,"[3]; day 0, dose 20 mg/kg i.p.",100%
same,No Surv./tot.,"[3]; day 0, dose 20 mg/kg i.p.",30/30
same,% Survival,"[3]; day 1, dose 10 mg/kg i.p.",80%
same,No Surv./tot.,"[3]; day 1, dose 10 mg/kg i.p.",24/30
same,% Survival,"[3]; day 1, dose 20 mg/kg i.p.",90%
same,No Surv./tot.,"[3]; day 1, dose 20 mg/kg i.p.",27/30
same,% Survival,"[3]; day 2, dose 10 mg/kg i.p.",46%
same,No Surv./tot.,"[3]; day 2, dose 10 mg/kg i.p.",14/30
same,% Survival,"[3]; day 2, dose 20 mg/kg i.p.",23%
same,No Surv./tot.,"[3]; day 2, dose 20 mg/kg i.p.",7/30
same,% Survival,"[3]; day 3, dose 10 mg/kg i.p.",46%
same,No Surv./tot.,"[3]; day 3, dose 10 mg/kg i.p.",14/30
same,% Survival,"[3]; day 3, dose 20 mg/kg i.p.",20%
same,No Surv./tot.,"[3]; day 3, dose 20 mg/kg i.p.",6/30
same,% Survival,"[3]; day 4, dose 10 mg/kg i.p.",46%
same,No Surv./tot.,"[3]; day 4, dose 10 mg/kg i.p.",14/30
same,% Survival,"[3]; day 4, dose 20 mg/kg i.p.",20%
same,No Surv./tot.,"[3]; day 4, dose 20 mg/kg i.p.",6/30
same,% Survival,"[3]; day 5, dose 10 mg/kg i.p.",46%
same,No Surv./tot.,"[3]; day 5, dose 10 mg/kg i.p.",14/30
same,% Survival,"[3]; day 5, dose 20 mg/kg i.p.",20%
same,No Surv./tot.,"[3]; day 5, dose 20 mg/kg i.p.",6/30
same,No Surv./tot.,"[3]; day 6, dose 10 mg/kg i.p.",14/30
same,No Surv./tot.,"[3]; day 6, dose 20 mg/kg i.p.",6/30
same,% Survival,"[3]; day 7, dose 10 mg/kg i.p.",46%
same,No Surv./tot.,"[3]; day 7, dose 10 mg/kg i.p.",14/30
same,% Survival,"[3]; day 7, dose 20 mg/kg i.p.",20%
same,No Surv./tot.,"[3]; day 7, dose 20 mg/kg i.p.",6/30
CCCCCCCCCCCCCCOc1ccc(CC(=O)Nc2cccc(-n3ccnc3C)c2)cc1 [N-[3-(2-Methyl-1H-imidazol-1-yl)phenyl-4-(tetradecyloxy)benzeneacetamidemonohydrochloride],% INH (inhibition of PAF induced platelet aggregation),"[1]; dose .00001 M, monohydrochloride",39.0%
